Literature values as cited in patent US20040072764A1, “Composition, in particular cosmetic, containing 7-hydroxy dhea and/or 7-keto dhea and at least an isoflavonoid” (priority 2000, published 2004).

Columns and labels:
human keratinocytes = settings: cited from WO 98/40074
skin = settings: on rats; cited from WO 00/28996
[1] = cited from WO 98/40074
fibroblasts = settings: cited from WO 98/40074

For `C[C@]12CC[C@H](O)CC1=C[C@@H](O)[C@@H]1[C@@H]2CC[C@]2(C)C(=O)CC[C@@H]12` [7α-hydroxy-DHEA], which “viability of the human keratinocytes” value (human keratinocytes) is on record?
The value was “increase”.

And the “collagen content of the skin” value (skin)?
Its value is “increased”.

And the “elastin content of the skin” value (skin)?
Its value is “increased”.

What about the “thickness of the dermis” value (skin) of the same compound?
The value was “increased”.

What about the anti-free radical effects [1] of the same compound?
Its anti-free radical effects is “had anti-free radical effects”.

And the “proliferation of the fibroblasts” value (fibroblasts)?
The value was “increase”.
